Bridge positions count the residues as written; N and C are the ends. Square brackets hold non-standard residues; d marks the D form. Peptide text beside a SMILES is read from it. I, II: the chains in the order shown. * marks the point of attachment. DOTA = O=C(O)CN1CCN(CC(=O)O)CCN(CC(=O)*)CCN(CC(=O)O)CC1; Nle = CCCC[C@H](N)C(=O)O; Dap = NC[C@H](N)C(=O)O
Experiments:
NPY Y1 receptor = target: T1, NPY Y1 receptor (Homo sapiens, UniProt P25929); test: Receptor autoradiography competition binding (125I-hPYY) on SK-N-MC cell membrane pellet sections; conditions: for IC50: SK-N-MC membrane pellets, 125I-hPYY displacement, mean ± SEM, n ≥ 3, read-out: Binding affinity Y1 (IC50)
T1 construct: SK-N-MC cells endogenously expressing Y1; host or cells: SK-N-MC
T1 sequence (P25929 1-384): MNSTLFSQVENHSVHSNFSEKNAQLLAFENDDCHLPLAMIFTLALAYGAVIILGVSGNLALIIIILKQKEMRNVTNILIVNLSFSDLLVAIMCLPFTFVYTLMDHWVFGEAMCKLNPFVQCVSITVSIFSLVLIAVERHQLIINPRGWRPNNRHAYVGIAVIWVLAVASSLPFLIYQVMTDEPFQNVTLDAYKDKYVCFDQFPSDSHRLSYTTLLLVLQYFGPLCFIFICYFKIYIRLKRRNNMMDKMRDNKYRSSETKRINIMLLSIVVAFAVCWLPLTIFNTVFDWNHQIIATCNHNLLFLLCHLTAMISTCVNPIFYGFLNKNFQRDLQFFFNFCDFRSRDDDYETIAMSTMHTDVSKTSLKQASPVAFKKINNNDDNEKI
Method: (§1) The neuroepithelioma cell line SK-N-MC endogenously expressing the NPY Y1 receptor was obtained from ATCC (HTB-10; LGC Standards, Teddington, Middlesex, UK) and cultured at 37°C and 5% CO2 in MEM with GlutaMax I and supplemented with 10% FBS, 100 U/ml penicillin and 100 μg/ml streptomycin, 1 mM MEM sodium pyruvate, and MEM non-essential amino acids (× 1). The neuroblastoma cell line SH-SY5Y endogenously expressing the NPY Y2 receptor, kindly provided by Dr. Paolo Paganetti (Novartis, Basel, Switzerland), was cultured at 37°C and 5% CO2 in MEM/Ham's F12 with GlutaMax I and supplemented with 10% FBS, 100 U/ml penicillin and 100 μg/ml streptomycin, 1 mM MEM sodium pyruvate, and MEM non-essential amino acids (× 1). All culture reagents were from Gibco BRL, Life Technologies, (Grand Island, NY, USA).
(§2) Binding affinities of the compounds were assessed using sections of cell membrane pellets of SK-N-MC for Y1 or SH-SY5Y for Y2, as described before. Briefly, membrane pellets were prepared and stored at -80°C, and receptor autoradiography was performed on 20-μm-thick cryostat (Microm HM 500, Walldorf, Germany) sections of the membrane pellets, mounted on microscope slides and stored at -20°C as previously described for other cell lines and receptors. The slides were preincubated in Krebs-Ringer solution (NaCl 119 mM, KCl 3.2 mM, KH2PO4 1.19 mM, MgSO4 1.19 mM, NaHCO3 25 mM, CaCl2 2.53 mM, D-glucose 10 mM; pH 7.4) for 60 min at room temperature. Then, they were incubated for 120 min in the incubation solution containing the Krebs-Ringer solution, 0.1% BSA, 0.05% bacitracin, and 10,000 cpm/100 μl of the ^125I-labeled human PYY (hPYY; 2,000 Ci/mmol; Anawa, Wangen, Switzerland). Membrane pellet sections were incubated with ^125I-hPYY in increasing concentrations ranging from 0.1 nM up to 1,000 nM of non-labeled hPYY, as control, or with the compounds to be tested. After the incubation, the slides were washed two times for 5 min and then rinsed four times in ice-cold preincubation solution. After drying, the slides were exposed to Kodak films Biomax MR® for 7 days. IC50 values were calculated after quantification of the data using a computer-assisted image processing system (Analysis Imaging System, Interfocus, Mering, Germany). Tissue standards (autoradiographic [^125I] and/or [^14C] microscales, GE Healthcare, Little Chalfont, UK) containing a known amount of isotope, cross-calibrated to tissue-equivalent ligand concentrations were used for quantification.

NPY Y2 receptor = target: T2, NPY Y2 receptor (Homo sapiens, UniProt P49146); test: Receptor autoradiography competition binding (125I-hPYY) on SH-SY5Y cell membrane pellet sections; conditions: SH-SY5Y membrane pellets, 125I-hPYY displacement; n ≥ 3; read-out: Binding affinity Y2 (IC50)
T2 construct: SH-SY5Y cells endogenously expressing Y2; endogenous in cells; host or cells: SH-SY5Y
T2 sequence (P49146 1-381): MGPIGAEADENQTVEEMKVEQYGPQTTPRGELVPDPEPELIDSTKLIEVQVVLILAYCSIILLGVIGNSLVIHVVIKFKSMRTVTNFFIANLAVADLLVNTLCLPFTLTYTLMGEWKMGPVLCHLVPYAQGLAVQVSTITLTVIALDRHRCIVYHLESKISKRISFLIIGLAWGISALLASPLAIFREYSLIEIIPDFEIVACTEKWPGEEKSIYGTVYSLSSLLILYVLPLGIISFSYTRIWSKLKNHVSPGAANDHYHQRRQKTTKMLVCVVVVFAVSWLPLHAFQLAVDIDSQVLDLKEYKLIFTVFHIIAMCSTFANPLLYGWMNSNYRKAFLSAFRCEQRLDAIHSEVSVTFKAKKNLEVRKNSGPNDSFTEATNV
Method: as §1, §2

Row | Compound | IC50 (NPY Y1 receptor) [nM] | IC50 (NPY Y2 receptor) [nM] | Y1 binding affinity in words (displacement of 125I-hPYY) (NPY Y1 receptor; SK-N-MC cell membrane pellet sections)
1 | CC[C@H](C)[C@H](N)C(=O)N[C@@H](CC(N)=O)C(=O)N1CCC[C@H]1C(=O)N[C@@H](CSSC[C@H](NC(=O)[C@@H]1CCCN1C(=O)[C@H](CC(N)=O)NC(=O)[C@@H](N)[C@@H](C)CC)C(=O)N[C@@H](Cc1ccc(O)cc1)C(=O)N[C@@H](CCCNC(=N)N)C(=O)N[C@@H](CC(C)C)C(=O)N[C@@H](CCCNC(=N)N)C(=O)N[C@@H](Cc1ccc(O)cc1)C(N)=O)C(=O)N[C@@H](Cc1ccc(O)cc1)C(=O)N[C@@H](CCCNC(=N)N)C(=O)N[C@@H](CC(C)C)C(=O)N[C@@H](CCCNC(=N)N)C(=O)N[C@@H](Cc1ccc(O)cc1)C(N)=O [Analog 1, Bis(31/31')[Pro^30, Cys^31, Tyr^32, Leu^34]NPY(28-36)-NH2, reference compound] (I: H-INPCYRLRY-NH2 / II: H-INPCYRLRY-NH2; disulfide I:4-II:4) | 11 ± 7 | > 1000 | 
2 | CC[C@H](C)[C@H](NC(=O)CN1CCN(CC(=O)O)CCN(CC(=O)O)CCN(CC(=O)O)CC1)C(=O)N[C@@H](CC(N)=O)C(=O)N1CCC[C@H]1C(=O)N[C@@H](CSSC[C@H](NC(=O)[C@@H]1CCCN1C(=O)[C@H](CC(N)=O)NC(=O)[C@@H](NC(=O)CN1CCN(CC(=O)O)CCN(CC(=O)O)CCN(CC(=O)O)CC1)[C@@H](C)CC)C(=O)N[C@@H](Cc1ccc(O)cc1)C(=O)N[C@@H](CCCNC(=N)N)C(=O)N[C@@H](CC(C)C)C(=O)N[C@@H](CCCNC(=N)N)C(=O)N[C@@H](Cc1ccc(O)cc1)C(N)=O)C(=O)N[C@@H](Cc1ccc(O)cc1)C(=O)N[C@@H](CCCNC(=N)N)C(=O)N[C@@H](CC(C)C)C(=O)N[C@@H](CCCNC(=N)N)C(=O)N[C@@H](Cc1ccc(O)cc1)C(N)=O [Analog 2] (I: {DOTA}-INPCYRLRY-NH2 / II: {DOTA}-INPCYRLRY-NH2; disulfide I:4-II:4) | 143 ± 37 | > 1000 | 
3 | CCCC[C@H](NC(=O)[C@H](CCCNC(=N)N)NC(=O)[C@H](Cc1c[nH]c2ccccc12)NC(=O)[C@H](CSSC[C@H](NC(=O)[C@@H]1CCCN1C(=O)[C@H](CC(N)=O)NC(=O)[C@@H](N)[C@@H](C)CC)C(=O)N[C@@H](Cc1c[nH]c2ccccc12)C(=O)N[C@@H](CCCNC(=N)N)C(=O)N[C@@H](CCCC)C(=O)N[C@@H](CCCNC(=N)N)C(=O)N[C@@H](Cc1ccc(O)cc1)C(N)=O)NC(=O)[C@@H]1CCCN1C(=O)[C@H](CC(N)=O)NC(=O)[C@@H](N)[C@@H](C)CC)C(=O)N[C@@H](CCCNC(=N)N)C(=O)N[C@@H](Cc1ccc(O)cc1)C(N)=O [Analog 3] (I: H-INPCWR[Nle]RY-NH2 / II: H-INPCWR[Nle]RY-NH2; disulfide I:4-II:4) | 9 ± 3 | > 1000 | 
4 | CCCC[C@H](NC(=O)[C@H](CCCNC(=N)N)NC(=O)[C@H](Cc1c[nH]c2ccccc12)NC(=O)[C@H](CSSC[C@H](NC(=O)[C@@H]1CCCN1C(=O)[C@H](CC(N)=O)NC(=O)[C@@H](NC(=O)CN1CCN(CC(=O)O)CCN(CC(=O)O)CCN(CC(=O)O)CC1)[C@@H](C)CC)C(=O)N[C@@H](Cc1c[nH]c2ccccc12)C(=O)N[C@@H](CCCNC(=N)N)C(=O)N[C@@H](CCCC)C(=O)N[C@@H](CCCNC(=N)N)C(=O)N[C@@H](Cc1ccc(O)cc1)C(N)=O)NC(=O)[C@@H]1CCCN1C(=O)[C@H](CC(N)=O)NC(=O)[C@@H](NC(=O)CN1CCN(CC(=O)O)CCN(CC(=O)O)CCN(CC(=O)O)CC1)[C@@H](C)CC)C(=O)N[C@@H](CCCNC(=N)N)C(=O)N[C@@H](Cc1ccc(O)cc1)C(N)=O [Analog 4] (I: {DOTA}-INPCWR[Nle]RY-NH2 / II: {DOTA}-INPCWR[Nle]RY-NH2; disulfide I:4-II:4) | 294 ± 33 | > 1000 | 
5 | CCCC[C@H](NC(=O)[C@H](CCCNC(=N)N)NC(=O)[C@H](Cc1c[nH]c2ccccc12)NC(=O)[C@H](CSSC[C@H](NC(=O)[C@@H]1CCCN1C(=O)[C@H](CN)NC(=O)[C@@H](N)[C@@H](C)CC)C(=O)N[C@@H](Cc1c[nH]c2ccccc12)C(=O)N[C@@H](CCCNC(=N)N)C(=O)N[C@@H](CCCC)C(=O)N[C@@H](CCCNC(=N)N)C(=O)N[C@@H](Cc1ccc(O)cc1)C(N)=O)NC(=O)[C@@H]1CCCN1C(=O)[C@H](CN)NC(=O)[C@@H](N)[C@@H](C)CC)C(=O)N[C@@H](CCCNC(=N)N)C(=O)N[C@@H](Cc1ccc(O)cc1)C(N)=O [Analog 5] (I: H-I[Dap]PCWR[Nle]RY-NH2 / II: H-I[Dap]PCWR[Nle]RY-NH2; disulfide I:4-II:4) | 143 ± 20 | > 1000 | 
6 | CCCC[C@H](NC(=O)[C@H](CCCNC(=N)N)NC(=O)[C@H](Cc1c[nH]c2ccccc12)NC(=O)[C@H](CSSC[C@H](NC(=O)[C@@H]1CCCN1C(=O)[C@H](CNC(=O)CN1CCN(CC(=O)O)CCN(CC(=O)O)CCN(CC(=O)O)CC1)NC(=O)[C@@H](N)[C@@H](C)CC)C(=O)N[C@@H](Cc1c[nH]c2ccccc12)C(=O)N[C@@H](CCCNC(=N)N)C(=O)N[C@@H](CCCC)C(=O)N[C@@H](CCCNC(=N)N)C(=O)N[C@@H](Cc1ccc(O)cc1)C(N)=O)NC(=O)[C@@H]1CCCN1C(=O)[C@H](CNC(=O)CN1CCN(CC(=O)O)CCN(CC(=O)O)CCN(CC(=O)O)CC1)NC(=O)[C@@H](N)[C@@H](C)CC)C(=O)N[C@@H](CCCNC(=N)N)C(=O)N[C@@H](Cc1ccc(O)cc1)C(N)=O [Analog 6] (I: H-I[Dap](DOTA)PCWR[Nle]RY-NH2 / II: H-I[Dap](DOTA)PCWR[Nle]RY-NH2; disulfide I:4-II:4) | > 1000 | > 1000 | 
7 | CCCC[C@H](NC(=O)[C@H](CCCNC(=N)N)NC(=O)[C@H](Cc1c[nH]c2ccccc12)NC(=O)[C@H](CSSC[C@H](NC(=O)[C@@H]1CCCN1C(=O)[C@H](CC(N)=O)NC(=O)[C@@H](N)[C@@H](C)CC)C(=O)N[C@@H](Cc1c[nH]c2ccccc12)C(=O)N[C@@H](CCCNC(=N)N)C(=O)N[C@@H](CCCC)C(=O)N[C@@H](CCCNC(=N)N)C(=O)N[C@@H](Cc1ccc(O)cc1)C(N)=O)NC(=O)[C@@H]1CCCN1C(=O)[C@H](CN)NC(=O)[C@@H](N)[C@@H](C)CC)C(=O)N[C@@H](CCCNC(=N)N)C(=O)N[C@@H](Cc1ccc(O)cc1)C(N)=O [Analog 7] (I: H-I[Dap]PCWR[Nle]RY-NH2 / II: H-INPCWR[Nle]RY-NH2; disulfide I:4-II:4) | 19 ± 5 | > 1000 | 
8 | hPYY: non-labeled human peptide YY, used as control in the binding assay [reference compound] |  |  | high-affinity displacements of ^125I-hPYY
